Reference: patent US10758620B2, “Potentiated antimicrobial agents” (SEPTEOS, priority 2014, dated 2020)
Values after ≈ are worked out from the molar mass of the structure shown. Like-named read-outs stand apart in the source and are kept apart here. One block for each compound: values may come before it.

What was measured:
candidas = experiment: MIC measurement (dilution test) on yeast strains; type: cell-based, Candida; conditions: Candida; read-out: MIC of sertaconazole alone
Source text: Inhibitory minimum concentration measurement tests are made in a solid agar medium according to international standards in force (CLSI M7-A9 Jan 12 standards): dispersion of the compounds to be tested in a Mueller Hinton gelose. An adaptation relating to the hydrophobicity of compounds and compositions is however necessary to disperse them in the medium: dilution of the compounds in a solvent. The compounds and compositions incorporated in the agar medium can be diluted beforehand in one or more solvents (Tween® 80 diluted with water, Tween® 80 diluted with […], DMSO diluted with water). The strains are deposited onto the agar surface with a steers apparatus. In the examples, different dissolution methods for products are tested in parallel to circumvent the problems of water/solvent distribution coefficient of the molecules (antimicrobial and potentiator) whereas the bacteria grow only in the aqueous phase. The technical requirement will not intervene in in vivo tests. The same dilution methods can be implemented in a liquid medium (microplates and tubes). The same methodology is implemented with fungi. […] MIC measurement: the minimum inhibitory concentration measurement tests are made in an agar solid medium according to international standards in force (CLSI standards), according to the previously defined protocol. […] The booster contribution as compared with the MIC of the antibiotic alone is expressed in a (MIC ATB)/(MIC ATB+booster) ratio. Thereby, gains are defined: […] The yeast strains tested (n=33) belong to the […] albicans, Candida tropicalis, Candida krusei, Candida parapsilosis, Candida glabrata species.

[1] = test system: Strain 09003, methicillin resistant S. aureus (MRSA); experiment: Resistance test (resistant mutants), Strain 09003; type: cell-based; conditions: Strain 09003, DMSO, 4 times the MIC, 48 h incubation, combinations 64/100
Experimental: (§1) After 48 h incubation, the presence or absence of colonies likely to be resistant mutants is observed.
(§2) ED control or DMSO=only distilled water or DMSO is added
(§3) Ciprofloxacine DMSO: addition of Ciprofloxacine in DMSO

[2] = test system: Strain 10168, methicillin resistant S. aureus (MRSA); experiment: Resistance test (resistant mutants), Strain 10168; type: cell-based; conditions: Strain 10168, DMSO, 4 times the MIC, 48 h incubation, combinations 64/100
Experimental: as §1, §2, §3

[3] = orally, cats; cited from earlier work
[4] = orally, rats; cited from earlier work
MRSA 10178 = experiment: Etest, staphylococci MRSA 10178; type: cell-based
Source text: (§4) The corresponding tests are made based on the usual MIC test: the Etest® (Biomerieux) strip is deposited onto the surface of a seeded agar medium in which the booster has been incorporated. This test enables solvent effect risks, that is a possible interaction with the solvent used in vitro, to be minimised.
(§5) The control corresponds to the test made without cineol. A control is made in each solvent tested: distilled water, Tween/water and DMSO.
(§6) ED control=antibiotic alone in distilled water
(§7) DMSO control=antibiotic alone in DMSO
(§8) TE control=antibiotic alone in Tween® 80

MSSA 8237 = experiment: Etest, staphylococci MSSA 8237; type: cell-based; conditions: MSSA 8237
Source text: as §4, §5, §6, §7, §8

Staphylococcus = experiment: MIC measurement in agar medium (dilution test), Staph; type: cell-based; conditions: Staphylococcus, read-out: MIC of the amox alone; staphylococci
Source text: Inhibitory minimum concentration measurement tests are made in a solid agar medium according to international standards in force (CLSI M7-A9 Jan 12 standards): dispersion of the compounds to be tested in a Mueller Hinton gelose. An adaptation relating to the hydrophobicity of compounds and compositions is however necessary to disperse them in the medium: dilution of the compounds in a solvent. The compounds and compositions incorporated in the agar medium can be diluted beforehand in one or more solvents (Tween® 80 diluted with water, Tween® 80 diluted with […], DMSO diluted with water). The strains are deposited onto the agar surface with a steers apparatus. In the examples, different dissolution methods for products are tested in parallel to circumvent the problems of water/solvent distribution coefficient of the molecules (antimicrobial and potentiator) whereas the bacteria grow only in the aqueous phase. The technical requirement will not intervene in in vivo tests. The same dilution methods can be implemented in a liquid medium (microplates and tubes). The same methodology is implemented with fungi. […] MIC measurement: the minimum inhibitory concentration measurement tests are made in an agar solid medium according to international standards in force (CLSI standards), according to the previously defined protocol. […] The booster contribution as compared with the MIC of the antibiotic alone is expressed in a (MIC ATB)/(MIC ATB+booster) ratio. Thereby, gains are defined: […]

Pseudomonas Strain 08131 = experiment: Etest, Pseudomonas Strain 08131; type: cell-based; conditions: Pseudomonas, STRAIN08131, Strain 08131, read-out: MIC
Source text: as §4, §5, §6, §7, §8

Pseudomonas Strain 08132 = experiment: Etest, Pseudomonas Strain 08132; type: cell-based
Source text: as §4, §5, §6, §7, §8

E. Coli Strain 08138 = experiment: Etest, E. Coli Strain 08138; type: cell-based; conditions: Escherichia coli, Strain 08138
Source text: as §4, §5, §6, §7, §8

E. Coli Strain 8150 = experiment: Etest, E. Coli Strain 8150; type: cell-based; conditions: Escherichia coli, Strain 8150
Source text: as §4, §5, §6, §7, §8

[5] = Staphylococcus aureus, MSSA, DMSO control = antibiotic alone in DMSO, read-out: MIC
[6] = Staphylococcus aureus, MSSA, ED control = antibiotic alone in distilled water, read-out: MIC
[7] = Staphylococcus aureus, MSSA, Tween water control = antibiotic alone, read-out: MIC
[8] = DMSO control = antibiotic alone in DMSO
[9] = ED control = antibiotic alone in distilled water
[10] = Tween water control = antibiotic alone

- MIC (candidas): 0.06 to 16 µg/mL
Compound: Clc1ccc(C(Cn2ccnc2)OCc2csc3c(Cl)cccc23)c(Cl)c1 (centres unmarked) [sertaconazole, reference compound]

Compound: O=C(O)c1cn(C2CC2)c2cc(N3CCNCC3)c(F)cc2c1=O [Ciprofloxacine, ciprofloxacine, reference compound]
- colonies likely to be resistant mutants [1]: numerous
- colonies likely to be resistant mutants ([1]; listed as ciprofloxacine): many mutants
- colonies likely to be resistant mutants [2]: invaded
- colonies likely to be resistant mutants ([2]; listed as ciprofloxacine): many mutants

Compound: Cc1ccc(C(C)C)cc1O [carvacrol]
- lowest lethal dose [3]: 100 mg/kg
- lowest lethal dose [4]: 100 mg/kg

- MIC (MRSA 10178; Staphylococcus aureus, MRSA, MRSA 10178, DMSO control = antibiotic alone in DMSO, read-out: MIC): 6 µg/mL (≈ 14 µM)
- MIC (MRSA 10178; Staphylococcus aureus, MRSA, MRSA 10178, ED control = antibiotic alone in distilled water, read-out: MIC): 6 µg/mL (≈ 14 µM)
- MIC (MRSA 10178; Staphylococcus aureus, MRSA, MRSA 10178, Tween water control = antibiotic alone, read-out: MIC): 4 µg/mL (≈ 9.36 µM)
- MIC (MSSA 8237; [5]): 6 µg/mL (≈ 14 µM)
- MIC (MSSA 8237; [6]): 6 µg/mL (≈ 14 µM)
- MIC (MSSA 8237; [7]): 6 µg/mL (≈ 14 µM)
Compound: CO[C@@]1(NC(=O)Cc2cccs2)C(=O)N2C(C(=O)O)=C(COC(N)=O)CS[C@@H]21 [Cefoxitine, reference compound]

- MIC (Staphylococcus): 0.25 to 32 µg/mL
Compound: CC1(C)S[C@@H]2[C@H](NC(=O)[C@H](N)c3ccc(O)cc3)C(=O)N2[C@H]1C(=O)O [amox, amoxicillin, reference compound]

Compound: C[C@@H](O)[C@H]1C(=O)N2C(C(=O)O)=C(S[C@@H]3CN[C@H](C(=O)N(C)C)C3)[C@H](C)[C@H]12 [Meropenem, reference compound]
- MIC (Pseudomonas Strain 08131; [8]): 2 µg/mL (≈ 5.22 µM)
- MIC (Pseudomonas Strain 08131; [9]): 1.5 µg/mL (≈ 3.91 µM)
- MIC (Pseudomonas Strain 08131; [10]): 2 µg/mL (≈ 5.22 µM)
- MIC (Pseudomonas Strain 08132; [8]): 12 µg/mL (≈ 31.3 µM)
- MIC (Pseudomonas Strain 08132; Pseudomonas, STRAIN08132, ED control = antibiotic alone in distilled water, read-out: MIC): 12 µg/mL (≈ 31.3 µM)
- MIC (Pseudomonas Strain 08132; [10]): 12 µg/mL (≈ 31.3 µM)
- MIC (MSSA 8237; [5]): 0.25 µg/mL (≈ 0.652 µM)
- MIC (MSSA 8237; [6]): 0.19 µg/mL (≈ 0.495 µM)
- MIC (MSSA 8237; [7]): 0.25 µg/mL (≈ 0.652 µM)

- MIC (MSSA 8237; [8]): 1.5 µg/mL (≈ 4.49 µM)
- MIC (MSSA 8237; [9]): 1 µg/mL (≈ 2.99 µM)
- MIC (MSSA 8237; [10]): 0.5 µg/mL (≈ 1.5 µM)
Compound: CC1(C)S[C@@H]2[C@H](NC(=O)Cc3ccccc3)C(=O)N2[C@H]1C(=O)O [Penicillin G, reference compound]

Compound: CN(C)c1cc(NC(=O)CNC(C)(C)C)c(O)c2c1C[C@H]1C[C@H]3[C@H](N(C)C)C(O)=C(C(N)=O)C(=O)[C@@]3(O)C(O)=C1C2=O [Tigecycline, reference compound]
- MIC (E. Coli Strain 08138; [8]): 0.38 µg/mL (≈ 0.649 µM)
- MIC (E. Coli Strain 08138; [9]): 0.38 µg/mL (≈ 0.649 µM)
- MIC (E. Coli Strain 08138; [10]): 0.38 µg/mL (≈ 0.649 µM)
- MIC (E. Coli Strain 8150; [8]): 0.19 µg/mL (≈ 0.324 µM)
- MIC (E. Coli Strain 8150; [9]): 0.125 µg/mL (≈ 0.213 µM)
- MIC (E. Coli Strain 8150; [10]): 0.125 µg/mL (≈ 0.213 µM)
- MIC (MRSA 10178; MRSA 10178, ED control = antibiotic alone in distilled water): 0.125 µg/mL (≈ 0.213 µM)
- MIC (MRSA 10178; MRSA 10178, Tween water control = antibiotic alone): 0.125 µg/mL (≈ 0.213 µM)
- MIC (MRSA 10178; Staphylococcus aureus, MRSA): 0.125 µg/mL (≈ 0.213 µM)
